Results taken from patent publication US8093209B2, “Methods of suppressing microglial activation and systemic inflammatory responses” (Cognosci, Incorporated, priority 2002, dated 2012).

Legend:
LDL receptor = LDL receptor (Homo sapiens, UniProt P01130); conditions: lipid-free peptide; cited from earlier work
[1] = tested on: primary rat neuronal/glial cultures exposed to NMDA; test: NMDA-induced 45Ca uptake by primary neuronal-glial cultures; format: cell-based; conditions: 10 μM MK-801 pretreatment, 100 μM NMDA
Description: (§1) Primary neuronal-glial cultures were prepared from fetal Sprague-Dawley rat brains at 18 days of gestation as previously described (Pearlstein et al., 1998). Brains were harvested from 10-15 pups and dissected to separate cortex from meninges and subcortical structures using anatomical landmarks. Cortices were pooled and minced into 2 mm^3 pieces in a buffered salt solution supplemented with 20 mM HEPES buffer, pH 7.4, containing 0.25% trypsin. The tissue was incubated for 20 minutes at 37° C. in a 5% CO2/95% room air atmosphere, and washed twice with ice-cold, glutamine-free minimum essential medium (MEM; Life Technologies) containing 15 mM glucose, 5% fetal bovine serum (GIBCO), 5% horse serum (GIBCO), and 1% DNase-I (Sigma Chemical Co., St. Louis, Mo., USA). Tissue pieces were dissociated by trituration through a fire-polished 9-inch Pasteur pipette (I.D.=0.7 mm). The resultant suspension was centrifuged at 50×g for 10 min, the supernatant discarded, and the pellet resuspended in growth medium (MEM supplemented with 15 mM glucose, 5% fetal bovine serum, and 5% horse serum). The dissociated cells were plated to achieve a confluent monolayer using 4×10^5 cells per well in poly-D-lysine coated, 24-well culture plates (Falcon 3047; Becton Dickinson Co., Lincoln Park, N.J., USA). Cultures were maintained undisturbed at 37° C. in a humidified 5% CO2/95% room air atmosphere for 13-16 days prior to use.
Cellular calcium uptake from the extracellular space was assessed using ^45CaCl2 (American Radiolabeled Chemicals, St. Louis, Mo.). After washing the cultures with Mg^2+-free BSS containing 20 mM HEPES buffer, 6 μM peptide or 10 μM MK-801 was added to each well prior to and removed at the end of 100 μM NMDA exposure. ^45Ca (0.28 μCi/ml, 0.9 μCi/well) was added to each well immediately prior to NMDA exposure. The cultures were returned to the incubator and maintained at 37° C. Twenty minutes later, the exposure medium was removed and each well was washed 3 times with ice-cold Mg^2+-free BSS containing 20 mM HEPES buffer. The cells were subsequently lysed by addition of 0.2% sodium dodecyl sulfate (SDS). An aliquot from each well was added to a liquid scintillation vial containing 10 ml Cytoscint™ (ICN, Biochemical Research Product, CA) and radioactivity was determined by scintillation counting and normalized to cell count.

[2] = tested on: thioglycollate-elicited peritoneal macrophages; test: [Ca2+]i in Fura-2/AM treated single macrophages, digital imaging microscopy (Example 10); format: cell-based, mouse; conditions: 1000-fold molar excess RAP, 10 mM NiCl2, or 1 μg/ml pertussis toxin 12 h
Description: (§2) Macrophage Harvesting. All experiments involving animals were first approved by the Duke Institutional Animal Care and Use Committee. Pathogen-free female C57BL/6 mice and ApoE deficient mice previously backcrossed 10 times to the C57BL/6 strain were obtained from the Jackson Laboratory (Bar Harbor, Me.). Thioglycollate-elicited peritoneal macrophages were harvested by peritoneal lavage using 10 ml of ice-cold Hanks' balanced salt solution containing 10 mM HEPES and 3.5 mM NaHCO3 (HHBSS), pH 7.4. The macrophages were pelleted by centrifugation at 4° C. at ˜800×g for 10 min and resuspended in RPMI 1640 media supplemented with 25 mM HEPES, 12.5 U/ml penicillin, 6.5 mg/ml streptomycin, and 5% fetal bovine serum.
Measurement of [Ca^2+]i in apoE and peptide treated macrophage. Changes in [Ca^2+]i levels in Fura-2/AM treated single cells were quantified using digital imaging microscopy in accordance with known techniques. Macrophages were plated on glass coverslips sitting in 35 mm Petri dishes at a density of 1.5×10^5 cells/cm^2, and allowed to adhere for 2 h in a humidified 5% CO2 incubator at 37° C. The non-adherent cells were aspirated and the monolayers were washed twice with HHBSS. 4 μM Fura-2/AM was incubated with the cells for thirty min in the dark at room temperature and [Ca^2+]i was subsequently measured using a digital imaging microscope in accordance with known techniques. […] To determine if signaling resulted from ligation of the ligand to LRP, cells were preincubated with a 1000-fold molar excess of RAP or 10 mM NiCl2, both of which inhibit ligand binding to LRP, for 5 min prior to stimulation with apoE or peptide. In experiments in which the involvement of a G protein was assessed, monolayers were incubated with 1 μg/ml pertussis toxin for 12 h at 37° C. and Ca^2+ measurements were made as stated above.

[3] = tested on: primary rat neuronal/glial cultures exposed to NMDA; test: NMDA-induced LDH release in primary neuronal-glial cultures; format: cell-based; conditions: 6 μM peptide, 100 μM NMDA
Description: as §1
Mature cultures (13-16 days in vitro) were washed with Mg^2+-free buffered salt solution (BSS) containing 20 mM HEPES buffer (pH7.4) and 1.8 mM CaCl2, prior to the addition of NMDA. Following NMDA exposure, cultures were maintained for 30 minutes at 37° C. in a 5% CO2/95% air atmosphere. The medium containing NMDA was then removed and replaced with MEM supplemented with 20 mM glucose. The cultures were returned to the incubator for 24 h. In all experiments, cellular damage was assessed at 24 h after exposure to NMDA by measurement of the activity of lactate dehydrogenase (LDH) released into the medium as described below. The non-competitive NMDA receptor antagonist, MK-801 (Tocris Cookson Ins., St. Louis, Mo.) at a concentration of 10 μM was used as a positive control. Preliminary dose-response studies were performed to determine the concentration of NMDA (100 μM) required to effect a near-maximal LDH release (ED90) as used in the present study.
The effect of human recombinant apoE (Panverra, Madison, Wis.) on 100 μM NMDA-induced LDH release was assessed and the dose-response curve was obtained (apoE: 0.1-10 μM final concentration). ApoE3, the most common human isoform, was added to the cultures 30 minutes prior to and removed following NMDA exposure. The effect of apoE peptide (133-149) on NMDA (100 μM or 300 μM)-induced LDH release was next assessed and the dose-response curve was obtained in a separate set of sister cultures that were simultaneously treated under one of the following conditions: (1) various doses of peptide (0.3 μM, 1 μM, 3 μM, 6 μM, 10 μM final concentration) were added to the culture immediately prior to and removed at the end of NMDA exposure; (2) no peptide, NMDA exposure; (3) no peptide, no NMDA exposure; (4) no peptide, NMDA exposure with 10 μM MK-801 for 30 minutes. The effect of a scrambled control peptide on NMDA-induced LDH release was similarly assessed.
The effect of time of administration of apoE peptide (133-149) on NMDA-induced LDH release was assessed in a separate set of sister cultures that were simultaneously treated under one of following conditions: (1) peptide was added to the culture medium 24 h prior to and removed immediately before exposure to NMDA; (2) peptide was added immediately prior to and removed at the end of the NMDA exposure; (3) peptide was added immediately following the 30 minutes NMDA exposure; (4) no peptide, NMDA exposure; (5) no peptide, no NMDA exposure. […]

[4] = tested on: enriched microglia primary cultures from apoE deficient mouse pups; test: LPS-stimulated nitric oxide (nitrite) secretion by enriched microglia primary cultures; format: cell-based; conditions: peptide dose of 2 mM, LPS 100 ng/ml
Description: Culture preparation and characterization: Mixed glial cell cultures were prepared from: (a) wildtype (C57B16; Jackson Laboratories) mouse pups; (b) ApoE deficient mutant mouse pups (ApoE-deficient mice), and (c) transgenic mouse pups expressing human ApoE3 but not murine ApoE (ApoE3 mice). See Xu et al., Neurobiol. Dis. 3:229 (1996) regarding the creation and characterization of the transgenic mice. Mixed glial cell cultures were prepared as has been described. See McMillian et al., Neurochem. 58:1308 (1992); Laskowitz et al., J. Neuroimmunol. 76:70 (1997). Briefly, brains were removed from 2-4 day old pups, cleaned of membranes and blood vessels, mechanically dispersed in Ca^+2-free media, and collected by centrifugation. Cells were then plated in DMEM/F12 (containing 10% fetal calf serum, 1% penicillin/streptomycin, Gibco #15070), one brain per 25 cm flask. […]
Nitrite Quantification The production of NO was assessed by measuring the accumulation of nitrite, which was quantified using a calorimetric reaction with Griess reagent (0.1% N-1-naphthylethylenediamine dihydrochloride, 1% sulfanilamide, and 2.5% H3PO4). Absorbance was measured at 570 nm by spectrophotometry. […]
Enriched microglia primary cultures were prepared from the brains of apoE deficient mouse pups as described in Example 1, above. […] Nitric oxide production was assessed as described in Example 1. […]

[5] = tested on: thioglycollate-elicited peritoneal macrophages; test: IP3 formation in myo-[2-3H]inositol-labeled macrophages (Example 10); format: cell-based, mouse; conditions: pertussis toxin pretreatment
Description: as §2, with “serum. Cell viability was determined by the trypan blue exclusion method and was consistently greater then 95%.” for “serum.”
Measurement of IP3 in apoE treated macrophage and effect of pertussis toxin. The formation of IP3 in myo-[2-^3H]inositol-labeled macrophages under various experimental conditions was quantified in accordance with known techniques. Macrophage were plated in 6 well plates (4×10^6 cells/well) and allowed to adhere at 37° C. for 2 h in a humidified 5% CO2 incubator. Medium was aspirated from the monolayers and RPMI 1640 medium containing 0.25% BSA and myo-[2-^3H]inositol (specific activity 10-20 Ci/mmol) was added to each well. […] Radioactivity was determined by placing aliquots in a liquid scintillation counter to determine radioactivity. […] The effect on IP3 formation was measured as described above.

Sequence of LDL receptor (P01130 22-860, species assumed): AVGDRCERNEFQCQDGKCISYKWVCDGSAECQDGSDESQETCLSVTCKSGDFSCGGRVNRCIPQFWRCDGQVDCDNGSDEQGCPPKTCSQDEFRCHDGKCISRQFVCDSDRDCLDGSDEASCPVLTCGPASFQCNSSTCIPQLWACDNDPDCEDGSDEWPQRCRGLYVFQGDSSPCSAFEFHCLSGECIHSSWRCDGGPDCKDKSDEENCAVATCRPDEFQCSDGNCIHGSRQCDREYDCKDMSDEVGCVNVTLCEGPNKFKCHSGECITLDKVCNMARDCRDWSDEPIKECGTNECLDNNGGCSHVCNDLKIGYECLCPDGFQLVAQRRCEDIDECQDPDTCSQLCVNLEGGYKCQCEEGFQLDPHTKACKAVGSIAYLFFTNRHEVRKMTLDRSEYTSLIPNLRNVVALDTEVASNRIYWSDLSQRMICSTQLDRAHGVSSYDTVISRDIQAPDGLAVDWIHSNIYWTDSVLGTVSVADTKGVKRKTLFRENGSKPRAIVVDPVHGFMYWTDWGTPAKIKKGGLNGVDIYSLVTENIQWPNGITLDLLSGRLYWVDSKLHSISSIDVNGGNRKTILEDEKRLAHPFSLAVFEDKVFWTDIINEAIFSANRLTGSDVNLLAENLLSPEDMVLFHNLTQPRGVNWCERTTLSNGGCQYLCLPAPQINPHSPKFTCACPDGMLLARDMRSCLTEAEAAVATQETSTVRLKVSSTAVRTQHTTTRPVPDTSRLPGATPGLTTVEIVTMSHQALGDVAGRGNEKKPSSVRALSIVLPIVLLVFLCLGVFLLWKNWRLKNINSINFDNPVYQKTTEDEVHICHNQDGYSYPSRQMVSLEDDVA

141-155 dimer: dimeric peptide of ApoE residues 141-155 (Dyer et al.)
LDL receptor binding (LDL receptor): ~1 % of LDL activity

141-155 monomer: lipid-free synthetic peptide comprising residues 141-155 of ApoE (Dyer et al.) (LRKLRKRLLRDADDL; UniProt P02649 159-173, looked up, fragment)
LDL receptor binding activity (LDL receptor): No binding activity was observed

C[C@]12N[C@H](Cc3ccccc31)c1ccccc12 [MK-801, reference compound]
NMDA-induced calcium influx [1]: completely reversed

[Cl][Ni][Cl] [Ni^+2, NiCl2, reference compound]
effect of preincubation on apoE-induced [Ca2+]i increase [2]: markedly attenuated the [Ca^2+]i increases

ApoE (136-149): 14 amino acid peptide, three amino-terminal residues removed from ApoE (133-149) (Ac-RLASHLRKLRKRLL-NH2; listed as Homo sapiens)
protection against NMDA-induced cell damage, truncated peptides [3]: modest protection against NMDA toxicity

ApoE (139-149): 11-residue peptide, six amino-terminal residues removed from ApoE (133-149) (Ac-SHLRKLRKRLL-NH2; listed as Homo sapiens)
protection against NMDA-induced cell damage, truncated peptides [3]: no detectable bioactivity

LRKLRKRLL (fragment of ApoE containing LDL receptor binding site) [SEQ ID NO:2, 9-mer monomer, ApoE positions 141-149, used as control]
nitric oxide secretion by activated microglia [4]: did not result in any apparent decrease in nitric oxide secretion

pertussis toxin [reference compound]
effect of preincubation on apoE-induced [Ca2+]i increase [2]: markedly attenuated the ApoE-dependent Ca^2+ response | effect of pretreatment on apoE-induced IP3 increase [5]: completely abolished this increase in IP3
